US20240408169A1 (priority 2023, published 2024)
*1 amine or outer side, *2 acyl side, *3 side chain or, on linkers, in order; H or OH if unused. Where a SMILES comes first, the peptide text is derived from it. Bridges are numbered along the chain shown (N, C = ends). [ ]: non-standard residue; d: D form. The star is where a group is joined. X47 = C[C@@H]1CN(c2ccc(-c3ccc(Cl)cc3C[C@@H](C(=O)[*:2])N(C)[*:1])cc2)C[C@H](C)N1C; X74 = C[C@@H]1CN(c2ccc(-c3ccc(Cl)cc3C[C@@H](C(=O)[*:2])N(C)[*:1])cc2)C[C@@H](C)O1; X39 = CN1CCC(n2cc(-c3ccc(-c4ccc(Cl)cc4C[C@@H](C(=O)[*:2])N(C)[*:1])cc3)cn2)CC1; X34 = CN1CC(N2CCN(c3ccc(-c4ccc(Cl)cc4C[C@@H](C(=O)[*:2])N(C)[*:1])cc3)CC2)C1; NMePhe(2-(4-MorPh),5-Cl) = CN[C@@H](Cc1cc(Cl)ccc1-c1ccc(N2CCOCC2)cc1)C(=O)O; X78 = CN1CCN(C2(c3ccc(-c4ccc(Cl)cc4C[C@@H](C(=O)[*:2])N(C)[*:1])cc3)CC2)CC1; X92 = CN1CCN(C(=O)c2ccc(-c3ccc(Cl)cc3C[C@@H](C(=O)[*:2])N(C)[*:1])cc2)CC1; X36 = Cc1cc(-c2ccc(Cl)cc2C[C@@H](C(=O)[*:2])N(C)[*:1])ccc1N1CCN(C)CC1; X37 = CN1CCN(c2ccc(-c3ccc(F)cc3C[C@@H](C(=O)[*:2])N(C)[*:1])cn2)CC1; X8 = CN1CCN(C2CC=C(c3ccc(Cl)cc3C[C@@H](C(=O)[*:2])N(C)[*:1])CC2)CC1; X6 = CN([C@@H](Cc1cc(Cl)ccc1-c1ccc(-c2cccnc2)cc1)C(=O)[*:2])[*:1]; NMehhhLys(Me) = CN([C@@H](CCCCCCCN(C)[*:3])C(=O)[*:2])[*:1]; X96 = CN([C@@H](Cc1cc(Cl)cc2ccn(C)c12)C(=O)[*:2])[*:1]; cBuCO(3,3-F2-1-CF3) = O=C(C1(C(F)(F)F)CC(F)(F)C1)*; Pro(trans-4-F) = O=C(O)[C@@H]1C[C@@H](F)CN1; Gly(cPr) = N[C@H](C(=O)O)C1CC1; X77 = CC(F)(C(=O)*)C(F)(F)F

Legend:
CyclinA2/CDK2 = molecular target: T1, CyclinA2/CDK2 (Homo sapiens, UniProt P20248); assay: Fluorescence Polarization (FP) competitive binding assay, Cyclin A2/Cdk2; conditions: 8 nM Cyclin A2/Cdk2, 2 nM FAM probe; average of 2-3 independent experiments; read-out: Cyclin A FP IC50;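 also: plates equilibrated two hours at room temperature before polarization reading, IC50 fitted from eight-concentration compound titration curves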
T1 construct: purchased CRELUX Protein Services

CyclinB1/CDK1 = molecular target: T2, CyclinB1/CDK1 (Homo sapiens, UniProt P14635); assay: Fluorescence Polarization (FP) competitive binding assay, Cyclin B1/Cdk1; conditions: 10 nM Cyclin B1/Cdk1, 2 nM FAM probe; average of 2-3 independent experiments; read-out: Cyclin B FP IC50;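 also: fluorescence polarization read after equilibration at room temperature, with IC50 taken from serially diluted dose-response curves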
T2 construct: purchased Eurofins, discovery 14-450

CyclinE1/CDK2 = molecular target: T3, CyclinE1/CDK2 (Homo sapiens, UniProt P24864); assay: Fluorescence Polarization (FP) competitive binding assay, Cyclin E1/Cdk2; conditions: 10 nM Cyclin E1/Cdk2, 2 nM FAM probe; average of 2-3 independent experiments; read-out: Cyclin E FP IC50;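 also: readings taken after two-hour equilibration at room temperature in HEPES buffer with NaCl, DTT, NP-40 and BSA, IC50 fitted from eight-concentration serial dilution series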
T3 construct: purchased Eurofins, discovery 14-475

WI-38 cells = assay: MTT proliferation assay, WI-38; format: cell-based; conditions: 3 days compound exposure, 1:3 serial dilution starting at 10 μM;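 also: Eight- or ten-point dilution series, with exposure length chosen to span about three to four cell doublings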
NCI-H1048 cells = assay: MTT proliferation assay, NCI-H1048; format: cell-based; conditions: 5 days compound exposure, 1:3 serial dilution starting at 10 μM;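 also: Dose-response in 96-well plates over 8 or 10 concentration points, with exposure spanning 3-4 cell doublings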
OVCAR3 cells = assay: MTT proliferation assay, OVCAR3; format: cell-based; conditions: 5 days compound exposure, 1:3 serial dilution starting at 10 μM;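 also: compound given as an 8- or 10-point series, one day after plating, with exposure covering roughly 3-4 cell doublings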

Structure (SMILES)	IC50 (CyclinA2/CDK2) [µM]	IC50 (CyclinB1/CDK1) [µM]	IC50 (CyclinE1/CDK2) [µM]	GI50 (WI-38 cells) [µM]	GI50 (NCI-H1048 cells) [µM]	GI50 (OVCAR3 cells) [µM]
Cc1cc(-c2ccc(Cl)cc2C[C@H]2C(=O)N(C)CCCCCCC[C@H](N(C)C(=O)[C@@H](NC(=O)[C@@H]3C[C@@H](F)CN3C(=O)C3(C(F)(F)F)CC(F)(F)C3)C3CC3)C(=O)N[C@@H](CC(C)C)C(=O)N2C)ccc1N1CCN(C)CC1 [Example 374] ({cBuCO(3,3-F2-1-CF3)}-[Pro(trans-4-F)][Gly(cPr)][NMehhhLys(Me)]L[X36]; lactam 3-C)	0.02	0.02	0.87	2.22	0.01	0.01
CC(C)C[C@@H]1NC(=O)[C@@H](N(C)C(=O)[C@@H](NC(=O)[C@@H]2C[C@@H](F)CN2C(=O)C2(C(F)(F)F)CC(F)(F)C2)C2CC2)CCCCCCCN(C)C(=O)[C@H](Cc2cc(Cl)ccc2-c2ccc(-c3cccnc3)cc2)N(C)C1=O [Example 375] ({cBuCO(3,3-F2-1-CF3)}-[Pro(trans-4-F)][Gly(cPr)][NMehhhLys(Me)]L[X6]; lactam 3-C)	0.02	0.02	1.73	16.8	0.01	0.02
CC(C)C[C@@H]1NC(=O)[C@@H](N(C)C(=O)[C@@H](NC(=O)[C@@H]2C[C@@H](F)CN2C(=O)C2(C(F)(F)F)CC(F)(F)C2)C2CC2)CCCCCCCN(C)C(=O)[C@H](Cc2cc(Cl)ccc2C2=CCC(N3CCN(C)CC3)CC2)N(C)C1=O (stereo partly drawn) [Example 376] ({cBuCO(3,3-F2-1-CF3)}-[Pro(trans-4-F)][Gly(cPr)][NMehhhLys(Me)]L[X8]; lactam 3-C)	0.02	0.02	1.33	3.45	0.01	0.01
CC(C)C[C@@H]1NC(=O)[C@@H](N(C)C(=O)[C@@H](NC(=O)[C@@H]2C[C@@H](F)CN2C(=O)C(C)(F)C(F)(F)F)C2CC2)CCCCCCCN(C)C(=O)[C@H](Cc2cc(Cl)ccc2-c2ccc(N3CCOCC3)cc2)N(C)C1=O (stereo partly drawn) [Example 377] (X77-[Pro(trans-4-F)][Gly(cPr)][NMehhhLys(Me)]L[NMePhe(2-(4-MorPh),5-Cl)]; lactam 3-C)	0.02	0.02	0.34	8.16	0.01	0.01
CC(C)C[C@@H]1NC(=O)[C@@H](N(C)C(=O)[C@@H](NC(=O)[C@@H]2C[C@@H](F)CN2C(=O)C2(C(F)(F)F)CC(F)(F)C2)C2CC2)CCCCCCCN(C)C(=O)[C@H](Cc2cc(Cl)ccc2-c2ccc(-c3cnn(C4CCN(C)CC4)c3)cc2)N(C)C1=O [Example 380] ({cBuCO(3,3-F2-1-CF3)}-[Pro(trans-4-F)][Gly(cPr)][NMehhhLys(Me)]L[X39]; lactam 3-C)	0.03	0.02	2.17	1.17	0.02	0.03
CC(C)C[C@@H]1NC(=O)[C@@H](N(C)C(=O)[C@@H](NC(=O)[C@@H]2C[C@@H](F)CN2C(=O)C2(C(F)(F)F)CC(F)(F)C2)C2CC2)CCCCCCCN(C)C(=O)[C@H](Cc2cc(Cl)ccc2-c2ccc(C3(N4CCN(C)CC4)CC3)cc2)N(C)C1=O [Example 381] ({cBuCO(3,3-F2-1-CF3)}-[Pro(trans-4-F)][Gly(cPr)][NMehhhLys(Me)]L[X78]; lactam 3-C)	0.02	0.02	1.31	2.3	0.02	0.04
CC(C)C[C@@H]1NC(=O)[C@@H](N(C)C(=O)[C@@H](NC(=O)[C@@H]2C[C@@H](F)CN2C(=O)C2(C(F)(F)F)CC(F)(F)C2)C2CC2)CCCCCCCN(C)C(=O)[C@H](Cc2cc(Cl)ccc2-c2ccc(N3CCN(C4CN(C)C4)CC3)cc2)N(C)C1=O [Example 383, (2S,4R)—N—((S)-2-(((3S,6S,9S)-3-((4-chloro-4′-(4-(1-methylazetidin-3-yl)piperazin-1-yl)-[1,1′-biphenyl]-2-yl)methyl)-6-isobutyl-1,4-dimethyl-2,5,8-trioxo-1,4,7-triazacyclohexadecan-9-yl)(methyl)amino)-1-cyclopropyl-2-oxoethyl)-1-(3,3-difluoro-1-(trifluoromethyl)cyclobutane-1-carbonyl)-4-fluoropyrrolidine-2-carboxamide] ({cBuCO(3,3-F2-1-CF3)}-[Pro(trans-4-F)][Gly(cPr)][NMehhhLys(Me)]L[X34]; lactam 3-C)	0.02	0.02	0.53	2.7	0.01	0.01
CC(C)C[C@@H]1NC(=O)[C@@H](N(C)C(=O)[C@@H](NC(=O)[C@@H]2C[C@@H](F)CN2C(=O)C2(C(F)(F)F)CC(F)(F)C2)C2CC2)CCCCCCCN(C)C(=O)[C@H](Cc2cc(Cl)ccc2-c2ccc(N3C[C@@H](C)N(C)[C@@H](C)C3)cc2)N(C)C1=O [Example 384] ({cBuCO(3,3-F2-1-CF3)}-[Pro(trans-4-F)][Gly(cPr)][NMehhhLys(Me)]L[X47]; lactam 3-C)	0.02	0.02	0.59	2.21	0.01	0.01
CCN(C(=O)[C@@H](NC(=O)[C@@H]1C[C@@H](F)CN1C(=O)C1(C(F)(F)F)CC(F)(F)C1)C1CC1)[C@H]1CCCCCCCN(C)C(=O)[C@H](Cc2cc(Cl)ccc2-c2ccc(N3CCN(C)CC3)cc2)N(C)C(=O)[C@H](CC(C)C)NC1=O [Example 388]	0.02	0.02	3.93	3.5	0.02	0.02
CC(C)C[C@@H]1NC(=O)[C@@H](N(C)C(=O)[C@@H](NC(=O)[C@@H]2C[C@@H](F)CN2C(=O)C2(C(F)(F)F)CC(F)(F)C2)C2CC2)CCCCCCCN(C)C(=O)[C@H](Cc2cc(Cl)ccc2-c2ccc(N3C[C@@H](C)O[C@H](C)C3)cc2)N(C)C1=O [Example 389] ({cBuCO(3,3-F2-1-CF3)}-[Pro(trans-4-F)][Gly(cPr)][NMehhhLys(Me)]L[X74]; lactam 3-C)	0.02	0.02	0.79	17.6	0.02	0.01
CC(C)C[C@@H]1NC(=O)[C@@H](N(C)C(=O)[C@@H](NC(=O)[C@@H]2C[C@@H](F)CN2C(=O)C2(C(F)(F)F)CC(F)(F)C2)C2CC2)CCCCCCCN(C)C(=O)[C@H](Cc2cc(Cl)ccc2-c2ccc(C(=O)N3CCN(C)CC3)cc2)N(C)C1=O [Example 390] ({cBuCO(3,3-F2-1-CF3)}-[Pro(trans-4-F)][Gly(cPr)][NMehhhLys(Me)]L[X92]; lactam 3-C)	0.02	0.02	0.87	9.24	0.03	0.02
CC(C)C[C@@H]1NC(=O)[C@@H](N(C)C(=O)[C@@H](NC(=O)[C@@H]2C[C@@H](F)CN2C(=O)C2(C(F)(F)F)CC(F)(F)C2)C2CC2)CCCCCCCN(C)C(=O)[C@H](Cc2cc(F)ccc2-c2ccc(N3CCN(C)CC3)nc2)N(C)C1=O [Example 391] ({cBuCO(3,3-F2-1-CF3)}-[Pro(trans-4-F)][Gly(cPr)][NMehhhLys(Me)]L[X37]; lactam 3-C)	0.03	0.02	0.61	7.82	0.01	0.01
CC(C)C[C@@H]1NC(=O)[C@@H](N(C)C(=O)[C@@H](NC(=O)[C@@H]2C[C@@H](F)CN2C(=O)C2(C(F)(F)F)CC(F)(F)C2)C2CC2)CCCCCCCN(C)C(=O)[C@H](Cc2cc(Cl)cc3ccn(C)c23)N(C)C1=O [Example 392, (2S,4R)—N—((S)-2-(((3S,6S,9S)-3-((5-chloro-1-methyl-1H-indol-7-yl)methyl)-6-isobutyl-1,4-dimethyl-2,5,8-trioxo-1,4,7-triazacyclohexadecan-9-yl)(methyl)amino)-1-cyclopropyl-2-oxoethyl)-1-(3,3-difluoro-1-(trifluoromethyl)cyclobutane-1-carbonyl)-4-fluoropyrrolidine-2-carboxamide] ({cBuCO(3,3-F2-1-CF3)}-[Pro(trans-4-F)][Gly(cPr)][NMehhhLys(Me)]L[X96]; lactam 3-C)	0.23	0.02	0.83	14.7	0.17	0.17
